Test results reported in ChEMBL document CHEMBL1141260, “Biologically active indole alkaloids from Kopsia arborea” (J Nat Prod, 2007).
Values after ≈ are worked out from the molar mass of the structure shown.

What was measured:
Type in all cases: functional, cell-based
Jurkat = assay: Cytotoxicity against human Jurkat cells
KB = assay: Cytotoxicity against vincristine-sensitive human KB cells
[1] = Cytotoxicity against vincristine-resistant human KB/VJ300 cells
[2] = Cytotoxicity against vincristine-resistant human KB/VJ300 cells in presence of 0.1 ug/mL vincristine

| SMILES | IC50 (Jurkat) | IC50 (KB) | IC50 [1] | IC50 [2] |
| --- | --- | --- | --- | --- |
| COC(=O)C1=C2Nc3ccccc3[C@]23CCN2CC[C@H]1[C@H]([C@H](C)OC)[C@@H]23 | > 25 µg/mL | > 25 µg/mL | > 25 µg/mL | 26.8 µM |
| COC(=O)C1=C2Nc3ccccc3[C@]23CCN2CC[C@H]1[C@H]([C@@H](C)OC)[C@@H]23 | > 25 µg/mL | > 25 µg/mL | > 25 µg/mL | 27.1 µM |
| CC[C@]12CCCNC13/C(=C\C(=O)OC)c1ccccc1N3C(=O)CC2 (some centres not stated) [ARBOLOSCINE] | – | 15 µg/mL (≈ 44.1 µM) | 11 µg/mL (≈ 32.3 µM) | 11.2 µM |
| C/C=C1/CN2CCc3c([nH]c4ccccc34)[C@H]2C[C@@H]1C(C)=O [ARBORICINE] | > 25 µg/mL | > 25 µg/mL | > 25 µg/mL | 36.7 µM |
| C/C=C1\[C@@H](C(C)=O)CCN2CCc3c([nH]c4ccccc34)[C@H]12 [ARBORICININE] | > 25 µg/mL | > 25 µg/mL | > 25 µg/mL | 31.3 µM |
| C=C1C2=Nc3ccccc3[C@@]23CCN2C/C(=C/C)[C@@H]1C[C@H]23 [VALPARICINE] | 0.25 µg/mL (≈ 0.905 µM) | 3.6 µg/mL (≈ 13 µM) | 0.75 µg/mL (≈ 2.71 µM) | 1.67 µM |
| CC[C@]12CCCN3CC[C@]4(C(=C(C(=O)OC)C1)Nc1ccccc14)[C@@H]32 [VINCADIFFORMINE] | 21.8 µg/mL (≈ 64.4 µM) | 10.2 µg/mL (≈ 30.1 µM) | 6.3 µg/mL (≈ 18.6 µM) | 13.3 µM |
